Reference: a melting point compilation (Tetko et al.; mined from patent text by program, amines drawn as free bases though some values may be those of a salt)

Compound | melting point [°C]
CCCCCCCCCCc1ccc(NC(=O)c2cc(Cl)cc(Cl)c2O)cc1 | 90 to 91
COc1ccc(C2=NN(C)C(=O)CC2)cc1 | 133 to 135
Cc1nccn1-c1nc(-c2ccc(Cl)cc2)c(CCC(=O)NCCCl)o1 | 155 to 156
OCC1OC(n2cnc3c(NCCc4cccs4)ncnc32)C(O)C1O (stereo not drawn) | 153 to 154
CC(C)(C)C(=O)Nc1nc(O)c2cc(C#C[Si](C)(C)C)cnc2n1 | > 250
CN1CCN(c2nc3sc4c(NCc5cccnc5)ncnc4c3c3c2COC(C)(C)C3)CC1 | 251 to 252
CCS(=O)(=O)CCNc1c(S(C)=O)c(C#N)nn1-c1c(Cl)cc(C(F)(F)F)cc1Cl (stereo not drawn) | 131 to 132
CCCS(=O)(=O)Cc1ccc(C(=O)Nc2ccc3cc(CN4CCCC4)cnc3c2C)cc1 | 191
CS[C@H]([C@@H](C)C(=O)O)[C@@H]1CCCN1C(=O)OC(C)(C)C | 141 to 142
Cc1cc(C)c2cccc(OCc3c(Cl)ccc(S(=O)(=O)N4CCC[C@H]4C(=O)NCCCNC(=O)c4cccc(C#N)c4)c3Cl)c2n1 | 102 to 106
CON=Cc1ncn2c1[C@@H]1CCCN1C(=O)c1c(Cl)cccc1-2 | 194 to 195
CCOC(=O)C1CCN(c2nc(CCl)c(C)s2)CC1 | 76 to 77
O=C(c1cc2ccnc(Cl)c2[nH]1)N1CCCC1 | 152 to 154
CCC(C(=O)c1ccc(Cl)cc1)n1ncn(-c2ccc(N3CCN(c4ccc(OC)cc4)CC3)nc2)c1=O (stereo not drawn) | 142
C#CCn1cc(C(=O)OCC)c(C(F)(F)F)c1 | 58
NS(=O)(=O)c1ccccc1-c1ccc(C(=O)N2Cc3ccc(C(=O)NCc4cccnc4)n3Cc3ccccc32)cc1 | 153 to 156
O=C(Nc1ccc(N2CCCCC2)cc1)N(C[C@@H]1CCC[C@H](CN(C(=O)Nc2ccc(N3CCCCC3)cc2)C2CCCCC2)C1)C1CCCCC1 | 174 to 178
CCOC(=O)CCCn1c(Nc2cnc(N3CCCC3)cc2C)nc2c(Cl)ccc(C(CC)CC)c21 | 195 to 196
CC1(C)NC(=O)C(C)(C)N1O | 240 to 245
CC(=O)C(C)(C)COS(=O)(=O)c1ccc(C)cc1 | 49 to 52

Compound | melting point [°C]
CCn1ccc2nc(N3CCN(c4ncc5cc(OC)c(OC)cc5n4)CC3)ncc2c1=O | 259 to 262
CCCCCCCCCCCCCCCC(=O)NO | 100 to 101
Cc1c(C2CCC(c3ccccc3)(N(C)C)CC2)n(CC(O)CN(C)C)c2ccccc12 (stereo not drawn) | 54 to 57
CC(C#N)(c1ccc(F)cc1)c1ccc([N+](=O)[O-])cc1Cl (stereo not drawn) | 133
CCCCCCCCCCCCn1nnc(CC(=O)O)n1 | 70 to 73
COc1ccc(-n2nnnc2C(F)(F)F)c(OC)c1CBr | 89.5 to 90
COc1cc2cc(C#N)sc2cc1OC | 125
CCc1[nH]n(C2CCCC2)c2nc(Cc3cccn3C)nc(=O)c1-2 | 214 to 216
COc1cc2c(cc1OC)CN(CCCCc1ccc(NC(=O)c3cccc4c(=O)cc(-c5ccccc5)oc34)cc1)CC2 | 117 to 120
COc1ccc(OC)c2c1C(=O)C=C(SCCCCCCO)C2=O | 87 to 88
CC(C)Oc1ccc(-c2ccc3nnn(Cc4ccc5ncccc5c4)c3n2)cc1F | 128 to 130
Cc1cc(C)cc(N(CCCC(N)=O)Cc2ccc3nc(NCCCN4CCOCC4)n(Cc4cccc5c4ncn5C)c3c2)c1 | 206
Nc1ccc2oc3ccc(OC(F)F)c(C(=O)Nc4c(Cl)cncc4Cl)c3c2c1 | > 270
CCOC(=O)C1C(=O)N(C)C(=S)N(C)C1=O | 90 to 93
CCCCCCCCCOC(=O)c1cc(-c2csc(-c3ccc(OCC)c(OCC)c3)n2)ccc1O | 67 to 68
Fc1ccc2sc(-c3ccc(CBr)cc3)nc2c1 | 138 to 141
CNc1ccsc1C(=O)OC | 54 to 57
Cn1c(C(F)(F)F)cc(=O)n(C)c1=O | 85 to 87
Cc1cc(C)cc(C(=O)c2c(C(C)C)c(=O)[nH]c(=O)n2Cc2cc(F)nc(F)c2)c1 | 185 to 187
CNC(=NS(C)(=O)=O)SC | 88 to 91

Compound | melting point [°C]
CC(C)Nc1cccnc1N1CCN(C(=O)c2ccc(C(=O)N(C(C)C)C(C)C)cc2)CC1 | 152 to 153
COc1nc2cc(Cl)c(Cl)c(-n3cnnc3-c3cccnc3)c2nc1OC | 206 to 207
COC(=O)CCCCCCCCCCCCCCCNc1ccc(C(=O)OC)cc1 | 92 to 93
CS(=O)(=O)Nc1nc2nc(NC3CCOCC3)ncc2cc1Oc1ccc(F)cc1F | 199 to 204
COC(=O)c1ccc(-c2n[nH]c3c2CCc2nc(C(C)C)c(C(C)C)nc2-3)cc1 | 204 to 206
CCCOc1cccc(-c2ccnc(Nc3cc(OC)c(OC)c(OC)c3)n2)c1 | 107
CCSC(=S)SC1NC(=O)C1C(C)C (stereo not drawn) | 65 to 66
Cc1c(S(N)(=O)=O)c(C(F)(F)F)nn1C | 204 to 206
O=C(Nc1cc2ncc(CN3CCCC3)cc2cc1F)c1ccc(-c2ccc(Cl)cc2)cc1F | 217 to 219
CN(S(C)(=O)=O)S(=O)(=O)N=C=O | 140
O=C1NC(=O)C(c2ccc(Oc3ccc(Cl)cc3)cc2)(N2CCN(CC(O)CO)CC2)C(=O)N1 (stereo not drawn) | 257 to 258
COc1ccc2c(c1)C(N1CCCC1=O)NN=C2Cc1c(Cl)cncc1Cl (stereo not drawn) | 223 to 225
CC12CC=C3c4ccc(O)cc4CCC3C1CCC2=O (stereo not drawn) | 250 to 255
CCOC(=O)Nc1cc(N2CCN(c3ccc([N+](=O)[O-])cc3)CC2)ccn1 | 243 to 245
COc1ccc(Cl)cc1N1CCN(CCNc2nccc(C(=O)N3CCC(Nc4nc(=O)cc[nH]4)CC3)n2)CC1 | 114 to 117
CC(C)(C)N(N=O)C1CCCCC1 | 87
Cc1cc2c(c(C)c1NC(=O)CC(C)(C)C)C(O)C(C)(C)O2 (stereo not drawn) | 217 to 218
COCOc1cc(OC)c(OC)cc1C#Cc1ccc(OC)c(OC)c1 | 84 to 86

The remaining lines, values ahead:

melting point [°C] | Compound
160 to 165 | CC(C)(C)OC(=O)NNC(=O)c1cc(=O)c(OCc2ccccc2)c[nH]1
89 to 90.5 | CN1C(=O)Cc2cccc(C(=O)c3ccccc3)c21
125 to 129 | CC(=O)CC(=O)C=Cc1ccc(O)cc1Cl
175 to 180 | COc1ccc2c(C3OC(=O)NC3=O)c(OC)ccc2c1 (stereo not drawn)
179 to 180 | COc1cc(OC)c2c(=O)[nH]c(-c3ccc(OCCNC(C)C)c(-c4ccccc4)n3)nc2c1
124 to 126 | Cc1c(-c2ccccc2)oc2c(C=O)cccc2c1=O
107 to 109 | CCOC(=O)C1=Cc2ccsc2S(=O)(=O)N1c1cccc(OC)c1
134 to 139 | CCOC(=O)C1=C(C)NC(c2scnc2C)=NC1c1ccc(F)cc1Cl (stereo not drawn)
214 to 215 | ON=C1CCC(c2ccccc2)CC1c1ccccc1 (stereo not drawn)
46 to 47 | CC(C)(CO)NCc1ccccc1
165 to 168 | CSc1ccc(C(=O)O)c([N+](=O)[O-])c1
95 to 97 | CCOc1ccc(C=CC(C)=O)cc1OC
192 to 193 | CC(C)(C)OC(=O)Nc1ccnc(NC(=O)NCc2ccccn2)c1
77 to 79 | Cc1c(OCc2ccccc2)cc(C(C)(C)C)cc1[N+](=O)[O-]
112 to 116 | CCCCCNC(=O)c1cnc2cccc(C)n2c1=O
140 to 142 | CC(=O)N1CCc2cc(C(=O)C(C)Br)ccc21 (stereo not drawn)
133 to 135 | O=C(O)C(=O)c1ccc(OCCCCOc2ccc3ccccc3c2)cc1
202 to 205 | CCN(CC)c1ccc(Nc2nc(N)c(C(=O)c3ccccc3[N+](=O)[O-])s2)cc1
222 to 225 | O=S1(=O)NCNc2c(-c3ccccc3)cc(-c3ccccc3)cc21
221 to 222 | NC(=O)NN=Cc1c(-c2ccccc2)nn2ccccc12
> 250 | CCOC(=O)c1sc(-c2ccc(C#N)cc2)nc1CO
71 to 73 | COP(=O)(OC)C(O)=Cc1ccccc1F
118 to 121 | Cc1csc(-c2nnc(NC(C)c3ccccc3)c3ccccc23)c1 (stereo not drawn)

melting point [°C] | Compound
178 | CCOC(=O)c1nn(-c2ccc(OC(F)(F)F)cc2)c2cccc(F)c2c1=O
90 to 92 | Cc1cc(Oc2ccc([N+](=O)[O-])cc2C(F)(F)F)nn1C(=O)NC(C)C
115 to 117 | C#CCOc1ccc(C(=O)C=Cc2cccnc2)c(O)c1
102 to 103 | OCc1c(Cl)nc(C2CCCC2)n1Cc1ccccc1
147 to 149 | OC(c1ccc(Cl)cc1)c1ccc(-n2ccnc2)nc1 (stereo not drawn)
172 to 173 | O=C(O)C=CSc1c[nH]c2ccccc12
241 to 243 | Cc1c(C(=O)O)c[nH]c1C(=O)c1ccccc1
64 | CCOC(=O)c1ccc(CO)cn1
108 to 109 | Cc1ccc2nc(C(O)[C@H](C)NC(=O)OCc3ccccc3)oc2c1 (stereo partly drawn)
156 to 157 | CCOCC1OC(n2cc(C(F)(F)F)c(=O)n(C(=O)c3ccccc3)c2=O)CC1O (stereo not drawn)
> 300 | Nc1nc2c(Cc3cccnc3)c[nH]c2c(=O)[nH]1
172 to 174 | CC(=O)N1CCC(c2n[nH]c3cc(Cl)ccc23)CC1
250 | O=C(Nc1ccc2ccc(Cl)nc2n1)C1CC1
219 to 221 | CC12CCC3c4ccc(OCc5ccccc5)c(N)c4CCC3C1CCC2=O (stereo not drawn)
224 to 227 | Nc1ncnc2c1ncn2Cc1oc2ccccc2c(=O)c1-c1cccc(F)c1
120 | CCOC(=O)CC=NCC(O)COc1ccccc1C#N (stereo not drawn)
147 to 148 | CC(C)(C)C(NC(=O)Cc1ccc2cccnc2c1)NC(=NC#N)Nc1cccc2ncccc12 (stereo not drawn)
167 to 169 | N#Cc1ccc(NC(=O)C(=O)N2CCC(Cc3ccc(F)cc3)CC2)cc1
191 | COC(=O)C1=C(O)c2ccc(F)cc2S(=O)(=O)N1C
179 to 181 | OCc1ccc2cc(O)ccc2c1
36 to 38 | CCCCCCOc1ccc2c(c1)C=C(C=O)CO2
204 to 206 | COC(=O)c1nc2n(n1)-c1ccccc1N(c1cccc(C(F)(F)F)c1)C2
